What was measured:
[1] = target: T1, Wee-1 kinase (Homo sapiens, UniProt P30291); test: Measurement of Wee-1 kinase activity (ADP-Glo luminescent kit); assay type: biochemical
T1 construct: purchased Invitrogen PV3817
Method in brief: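 ADP-Glo luminescence reads ADP made over 1 h at RT, after an aliquot of 30 μM ATP and 2.0 μg/mL poly(Lys,Tyr 4:1) substrate. Before that, the kinase sat 30 min with inhibitor in Tris-HCl/MgCl2 buffer with BSA and DTT. IC50 came from regression of percent inhibition.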

[2] = test system: phospho-cdc2 (Tyr15) in HT-29 cells; test: Effect on phosphorylation of cdc2 at Tyr15, PathScan ELISA (Method 2); assay type: cell-based; conditions: Homo sapiens, 8 h, eight hours incubation, read-out: HT29 pCDC2 method 2
Procedure: Method 2: Determining the Effect of Compounds on the phosphorylation of cdc2 at Tyr15
The colorectal cancer cell lines HT-29 and HCT-116 were purchased from the ATCC and routinely maintained in McCoy's Medium (Invitrogen) supplemented with 10% Foetal Calf Serum.
The cells were trypsinised from their growing vessel and counted, 100 μL of cell suspension containing 6000 cells was pipetted into black 96 well Co-star plates and incubated overnight to allow adherence to the surface at a temperature of 37° C. and an atmosphere of 5% CO2. Test compounds were formulated in DMSO and diluted in foetal calf serum supplemented medium. Incubating medium was removed by aspiration and diluted drug supplemented medium added to each well.
The plate was returned to the incubator for an additional eight hours at 37° C. and an atmosphere of 5% CO2. Post incubation, the drug supplemented medium was aspirated from each well and the cells were washed once in ice-cold phosphate buffered saline (PBS). 100 μL of cell lysis buffer (Cell Signalling Technologies #9803) containing 20 mM Tris, 150 mM NaCl, 1 mM EDTA, 1 mM EGTA, 1% Triton-X100, 2.5 mM sodium pyrophosphate, 1 mM glycerophosphate, 1 mM Na3VO4 and 1 μg/mL leupeptin was added to each well of the 96 well plate and incubated at 4° C. for 30 min. The samples on the plate were snap frozen at −80° C. until required. Immediately before the continuation of the assay, the sample plate was thawed and centrifuged at 4° C. for 10 min and the supernatant transferred to secondary tubes or 96 well plate.
Cell supernatant was mixed in a ratio of 1:1 with sample dilutent buffer and vortexed for one minute. 100 μL of diluted sample was pipetted into pre-coated plates containing a rabbit polyclonal antibody for phospho-cdc2 (Tyr15) (Cell Signalling Technologies PathScan kit #7176). The plate was sealed and incubated overnight at 4° C.
The plate seal was removed and the well contents aspirated, followed by 3×5 min washes with 200 μL of diluted wash buffer. Between each wash the plate was tapped firmly onto blotting paper to ensure the removal of all kit solution. 100 μL of kit detection antibody was added to each well and the plate re-sealed and incubated at 37° C. for 1 h. Post incubation the plate was washed and processed in a similar manner to that previously described.
100 μL of horseradish peroxidise-linked secondary antibody was added to each test well, the plate sealed and incubated for thirty minutes at 37° C. Post incubation, the plate was washed as previously stated, followed by the addition of 100 μL of 3,3′,5,5′ tetramethylbenzidine (TMB reagent). The plate was sealed and incubated at RT for 30 min.
100 μL of stop solution was added to each well and the underside of the plate wiped with a lint-free tissue, prior to spectrophotometric determination. Absorbance from each well was read at 450 nm within 30 min of the addition of the stop solution.
The percentage of phospho-cdc2 was calculated compared to DMSO control and plotted versus the concentration of inhibitor using GraphPad Prism. Data was fitted using non-linear regression analysis and IC50 values generated.

[3] = target: T2, human ether a go-go related gene (hERG) K′ channel (Homo sapiens, UniProt Q12809); test: hERG activity, IonWorks patch clamp electrophysiology (Method 6); assay type: cell-based
T2 construct: Essen BioScience
T2 sequence (Q12809 whole entry): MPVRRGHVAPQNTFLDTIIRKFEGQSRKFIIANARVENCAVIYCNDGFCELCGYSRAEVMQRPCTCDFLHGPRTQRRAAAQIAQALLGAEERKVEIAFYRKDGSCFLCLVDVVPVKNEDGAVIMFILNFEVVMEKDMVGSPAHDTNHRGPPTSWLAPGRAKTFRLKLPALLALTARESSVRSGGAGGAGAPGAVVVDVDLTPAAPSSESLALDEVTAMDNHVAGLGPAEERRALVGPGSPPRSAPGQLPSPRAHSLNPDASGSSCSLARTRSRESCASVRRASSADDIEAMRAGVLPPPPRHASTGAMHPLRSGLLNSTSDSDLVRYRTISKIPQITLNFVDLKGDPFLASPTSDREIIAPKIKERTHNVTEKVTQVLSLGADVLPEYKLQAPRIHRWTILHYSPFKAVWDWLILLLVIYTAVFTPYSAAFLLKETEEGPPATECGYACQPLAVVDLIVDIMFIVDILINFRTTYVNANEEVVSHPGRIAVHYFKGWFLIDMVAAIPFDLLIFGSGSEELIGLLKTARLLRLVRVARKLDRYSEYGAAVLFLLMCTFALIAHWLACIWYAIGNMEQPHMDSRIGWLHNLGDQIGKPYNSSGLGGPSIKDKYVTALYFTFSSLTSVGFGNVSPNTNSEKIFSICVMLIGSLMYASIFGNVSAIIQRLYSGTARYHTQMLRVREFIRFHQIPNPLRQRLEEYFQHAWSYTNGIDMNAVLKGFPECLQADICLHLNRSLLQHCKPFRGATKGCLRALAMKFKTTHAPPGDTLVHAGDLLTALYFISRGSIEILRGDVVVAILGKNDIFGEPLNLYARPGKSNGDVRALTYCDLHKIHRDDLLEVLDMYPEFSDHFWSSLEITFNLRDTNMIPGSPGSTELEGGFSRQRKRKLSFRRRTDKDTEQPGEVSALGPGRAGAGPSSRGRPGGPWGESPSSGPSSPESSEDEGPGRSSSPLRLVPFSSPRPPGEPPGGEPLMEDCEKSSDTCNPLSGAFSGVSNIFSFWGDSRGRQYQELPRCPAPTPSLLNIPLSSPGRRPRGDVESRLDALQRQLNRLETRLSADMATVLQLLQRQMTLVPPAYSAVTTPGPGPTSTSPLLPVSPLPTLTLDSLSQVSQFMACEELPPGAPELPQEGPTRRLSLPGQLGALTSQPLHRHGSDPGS
Procedure: Method 6: Determination of hERG Activity
Compounds were tested for inhibition of the human ether a go-go related gene (hERG) K′ channel using IonWorks patch clamp electrophysiology at Essen BioScience. 8-Point concentration-response curves of the effect of compound on hERG current as a percentage of pre-compound signal were generated using 3-fold serial dilutions from 11 μM and results are reported as IC50 in μM.

T1 sequence (P30291 whole entry): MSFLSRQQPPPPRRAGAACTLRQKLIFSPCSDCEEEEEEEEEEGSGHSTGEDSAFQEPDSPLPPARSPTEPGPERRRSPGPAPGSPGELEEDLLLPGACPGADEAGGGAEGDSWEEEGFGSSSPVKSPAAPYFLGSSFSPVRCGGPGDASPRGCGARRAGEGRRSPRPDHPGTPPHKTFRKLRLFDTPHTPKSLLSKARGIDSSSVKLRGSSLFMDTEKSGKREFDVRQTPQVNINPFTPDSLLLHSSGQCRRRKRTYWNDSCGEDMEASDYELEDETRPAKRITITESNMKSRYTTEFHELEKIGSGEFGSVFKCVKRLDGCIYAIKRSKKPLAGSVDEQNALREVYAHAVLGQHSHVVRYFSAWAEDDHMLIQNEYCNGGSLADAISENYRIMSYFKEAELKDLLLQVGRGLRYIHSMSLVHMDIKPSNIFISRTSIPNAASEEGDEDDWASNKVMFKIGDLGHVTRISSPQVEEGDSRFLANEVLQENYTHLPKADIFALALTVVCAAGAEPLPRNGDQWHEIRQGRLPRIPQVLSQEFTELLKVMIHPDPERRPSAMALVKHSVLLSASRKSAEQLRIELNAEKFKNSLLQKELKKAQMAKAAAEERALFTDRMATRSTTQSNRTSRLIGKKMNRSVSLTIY

| IC50 [1] [nM] | IC50 [2] [nM] | SMILES | IC50 [3] [nM] | hERG inhibition compared with prior art analogues ([3]; versus analogues from WO2013126656, WO2013013031 and WO2013059485) |
| --- | --- | --- | --- | --- |
| ≤ 10 | 100 to 1000 | CN1CN(c2c(Cl)cccc2Cl)C(=O)c2cnc(Nc3ccc(N4CCNCC4)cc3)nc21 [Example 1, 3-(2,6-Dichlorophenyl)-1-methyl-7-((4-(piperazin-1-yl)phenyl)amino)-2,3-dihydropyrimido[4,5-d]pyrimidin-4(1H)-one] | > 10000 | – |
| ≤ 10 | ≤ 100 | Cc1cc(Nc2ncc3c(n2)N(C)CN(c2c(Cl)cccc2Cl)C3=O)ccc1N1CCNCC1 [Example 6, 3-(2,6-Dichlorophenyl)-1-methyl-7-((3-methyl-4-(piperazin-1-yl)phenyl)amino)-2,3-dihydropyrimido[4,5-d]pyrimidin-4(1H)-one] | > 10000 | – |
| ≤ 10 | ≤ 100 | C[C@@H]1CN(c2ccc(Nc3ncc4c(n3)N(C)CN(c3c(Cl)cccc3Cl)C4=O)cc2)CCN1 [Example 16, (R)-3-(2,6-Dichlorophenyl)-1-methyl-7-((4-(3-methylpiperazin-1-yl)phenyl)amino)-2,3-dihydropyrimido[4,5-d]pyrimidin-4(1H)-one] | > 10000 | – |
| ≤ 10 | 100 to 1000 | CNCc1cc(Nc2ncc3c(n2)N(C)CN(c2c(Cl)cccc2Cl)C3=O)ccc1N1CCOCC1 [Example 5, 3-(2,6-Dichlorophenyl)-1-methyl-7-((3-((methylamino)methyl)-4-morpholinophenyl)amino)-2,3-dihydropyrimido[4,5-d]pyrimidin-4(1H)-one] | – | lower hERG inhibition |

Reference: US9850247B2 (Almac Discovery Limited, priority 2013, dated 2017)
